PubChem BioAssay AID743267 (Broad Institute, 2014)

tested on: human bronchial epithelial cells, CFTR corrector, plate reader; experiment: rescue of ΔF508 CFTR function, airway epithelium – human bronchial epithelial cells, plate reader, cherry-pick, two tests, dose response (AID 743267); settings: measured here: test 2 replicate run

Question: `CC(=O)NC(c1ccc(Cl)cc1Cl)c1ccc2cccnc2c1O` (centres undefined) was tested. Which AC50 did it give?
Answer: The AC50 was 2.63 µM.

Question: Which AC50 does the source give for `O=C(N/N=C/c1cc(Br)cc(Cl)c1O)c1ccc2c(c1)OCO2` here?
Answer: The AC50 was 9.98 µM.

Question: For `COc1cc(SC)ccc1C(=O)N1CCN(c2ccccc2OC)CC1`, which AC50 is on record?
Answer: The AC50 was 6.62 µM.

Question: `COc1c(O[C@@H]2O[C@H](CO)[C@@H](O)[C@H](O)[C@H]2O)cc2c(c1OC)-c1ccc(SC)c(=O)cc1C(NC(C)=O)CC2` (some centres undefined) was tested. Which AC50 did it give?
Answer: The AC50 was over 50 µM.

Question: For `Nc1ccn([C@@H]2O[C@H](C(=O)NCC(F)(F)F)[C@@H](O)[C@H]2O)c(=O)n1`, which AC50 is on record?
Answer: Its AC50 is over 50 µM.

Question: For `O=Cc1ccccc1OCc1ccc2c(c1)OCO2`, which AC50 is on record?
Answer: The AC50 was 14.5 µM.

Question: With `COc1ccc(C2C3=C(COC3=O)Oc3cc4c(cc32)OCO4)cc1OC` (centres undefined) as the molecule, how does the AC50 read?
Answer: Its AC50 is 3.72 µM.

Question: `COc1ccc(OC)c2[nH]c(C(=O)N/N=C/c3ccccc3O)cc12` was tested. Which AC50 did it give?
Answer: The AC50 was 2.6 µM.

Question: `Cc1cc(Cl)cc(C)c1OCCn1ccnc1` was tested. Which AC50 did it give?
Answer: The AC50 was 4.68 µM.

Question: `COc1cc(OC)cc(C(=O)N[C@H](C(=O)Nc2nc3ccccc3[nH]2)C(C)C)c1` was tested. Which AC50 did it give?
Answer: The AC50 was 2.34 µM.

Question: Which AC50 does the source give for `Cc1ccc(COc2ccccc2-c2cc(C(=O)N/N=C/c3cccnc3)[nH]n2)cc1` here?
Answer: Its AC50 is over 50 µM.

Question: `O=C1c2cccc3c(O)ccc(c23)C(=O)N1Cc1ccco1` was tested. Which AC50 did it give?
Answer: The AC50 was 13.3 µM.

Question: For `COC(=O)c1cn(C(=O)c2ccc(C)cc2C)c2ccccc12`, which AC50 is on record?
Answer: Its AC50 is 7.53 µM.

Question: With `COc1ccc(/C=C2/CCCc3ccccc3C2=O)cc1` as the molecule, how does the AC50 read?
Answer: The AC50 was 1.92 µM.

Question: Which AC50 does the source give for `Cc1nn(S(=O)(=O)c2ccc(Cl)cc2)c(C)c1Sc1ccc([N+](=O)[O-])cc1` here?
Answer: The AC50 was over 32 µM.

Question: How did the AC50 turn out when `COCCCN=C1NN=C(c2cc(C)n(Cc3ccccc3Cl)c2C)CS1` was run?
Answer: Its AC50 is 3.3 µM.

Question: For `Fc1ccccc1/C=N/NC(=S)Nc1ccc(Cl)cc1Cl`, which AC50 is on record?
Answer: The AC50 was 1.62 µM.

Question: With `Cc1cc(C(=O)N/N=C/c2ccc(N(C)C)cc2)c2ccccc2n1` as the molecule, how does the AC50 read?
Answer: The AC50 was 5.44 µM.

Question: `COc1cc(OC)c2c(-c3cccc(-c4sccc4C(C)=O)c3)cc(=O)oc2c1` was tested. Which AC50 did it give?
Answer: Its AC50 is 12.2 µM.

Question: How did the AC50 turn out when `COc1ccccc1N1CC(C(=O)Nc2ccc(S(=O)(=O)N3CCCC3)cc2)CC1=O` (centres undefined) was run?
Answer: Its AC50 is 10.6 µM.

Question: Which AC50 does the source give for `Cc1ccc(S(=O)(=O)NCc2ccccc2)cc1C(=O)N1CC(C)CC(C)C1` (centres undefined) here?
Answer: Its AC50 is over 50 µM.

Question: With `COC(=O)c1cn(NC(=O)c2cc([N+](=O)[O-])ccc2F)c(=O)c2ccccc12` as the molecule, how does the AC50 read?
Answer: Its AC50 is 1.21 µM.

Question: How did the AC50 turn out when `Cc1ccc(C(=O)N/N=C/c2cc(Br)ccc2O)cn1` was run?
Answer: Its AC50 is 0.672 µM.

Question: Which AC50 does the source give for `CCN(CC)c1ccc(/C=N/NC(=O)c2ccco2)c(O)c1` here?
Answer: The AC50 was 2.3 µM.

Question: Which AC50 does the source give for `COc1ccc2noc3c2c1C(=O)c1ccccc1-3` here?
Answer: Its AC50 is 19.1 µM.

Question: Which AC50 does the source give for `COc1ccc(OC)c(-c2cc(-c3cccnc3)nc(N)c2C#N)c1` here?
Answer: The AC50 was 2.43 µM.

Question: For `NS(=O)(=O)c1cc(Cl)c(Cl)c(S(N)(=O)=O)c1`, which AC50 is on record?
Answer: The AC50 was 0.0468 µM.

Question: Which AC50 does the source give for `CCOC(=O)c1ccc(Nc2sc(C(=O)c3cccc([N+](=O)[O-])c3)c(N)c2C#N)cc1` here?
Answer: The AC50 was 1.84 µM.

Question: `Cc1ccc2c(C)c3ccc4ccccc4c3c[n+]2c1` was tested. Which AC50 did it give?
Answer: Its AC50 is 1.06 µM.

Question: Which AC50 does the source give for `CCN(CC)c1ccc(/C=C(/C#N)c2nc3ccc(C)cc3[nH]2)c(OC(C)C)c1` here?
Answer: The AC50 was 9.34 µM.

Question: How did the AC50 turn out when `CO/N=C\CC(=O)Nc1ccc(Cl)cc1Cl` was run?
Answer: Its AC50 is 30.9 µM.

Question: For `Cc1nn2cc(-c3cccc(Cl)c3)cnc2c1Br`, which AC50 is on record?
Answer: Its AC50 is 3.81 µM.

Question: `O=C(NCCOc1ccccc1)c1cc([N+](=O)[O-])ccc1N1CCOCC1` was tested. Which AC50 did it give?
Answer: Its AC50 is 2.66 µM.

Question: `O=C(OCc1ccc(Br)cc1)c1cc([N+](=O)[O-])ccc1N1CCOCC1` was tested. Which AC50 did it give?
Answer: The AC50 was 0.662 µM.

Question: With `CC1=C/C(=C\C=C(C#N)C#N)N(C)c2ccccc21` as the molecule, how does the AC50 read?
Answer: Its AC50 is 12.9 µM.

Question: With `NS(=O)(=O)c1cc(C2(O)NC(=O)c3ccccc32)ccc1Cl` (centres undefined) as the molecule, how does the AC50 read?
Answer: Its AC50 is over 50 µM.

Question: How did the AC50 turn out when `CCOC(=O)N1CCN(S(=O)(=O)c2ccc3c(c2)C(C)C(=O)N3)CC1` (centres undefined) was run?
Answer: Its AC50 is over 50 µM.

Question: Which AC50 does the source give for `CCOc1ccc(Cl)cc1C1=CC(=O)C[C@H](c2ccc(OC)cc2)C1` here?
Answer: Its AC50 is 1.92 µM.

Question: Which AC50 does the source give for `COc1ccc(O)c(/C=N/NC(=O)c2ccc(N3CCCC3=O)cc2)c1` here?
Answer: Its AC50 is 8.14 µM.

Question: For `CN(C)/C=C1\C=C2C(=O)c3ccccc3N2C1=O`, which AC50 is on record?
Answer: Its AC50 is 5.5 µM.

Question: For `O=S(=O)(Cc1ccc(Cl)cc1Cl)c1ccc(Cl)cc1`, which AC50 is on record?
Answer: Its AC50 is 2.72 µM.

Question: For `Cc1ccc(N(C)S(=O)(=O)c2ccc(-c3cnc(C4CC4)o3)cc2)cc1`, which AC50 is on record?
Answer: Its AC50 is 1.17 µM.

Question: `O=c1[nH]c(/C=C/c2ccccc2F)nc2ccccc12` was tested. Which AC50 did it give?
Answer: Its AC50 is 2.69 µM.

Question: How did the AC50 turn out when `Cc1nc(/N=C(\N)NC(=O)NC2CCCCC2)nc2ccccc12` was run?
Answer: Its AC50 is 2.76 µM.

Question: For `COc1ccc2c(c1)C(O)C(CO)C(C(=O)O)C2` (centres undefined), which AC50 is on record?
Answer: Its AC50 is 9.28 µM.

Question: Which AC50 does the source give for `CCN(C(=O)CSc1nc2ccccc2c(=O)n1-c1ccccc1F)C1CCS(=O)(=O)C1` (centres undefined) here?
Answer: The AC50 was 0.253 µM.

Question: Which AC50 does the source give for `COc1cccc(-c2cnc3c(NC(C)=O)cc(-c4cc(F)ccc4OC)cn23)c1` here?
Answer: Its AC50 is 11.9 µM.

Question: How did the AC50 turn out when `CCOC(=O)c1[nH]c(C)c(/C(O)=C2\C(=O)C(=O)N(CCCN3CCOCC3)C2c2cccs2)c1C` (centres undefined) was run?
Answer: Its AC50 is 19.4 µM.

Question: Which AC50 does the source give for `COc1ccc(OC)c(C(=O)Cn2nnc(-c3ccc(N4CCOCC4)cc3)n2)c1` here?
Answer: Its AC50 is 31.1 µM.

Question: With `O=C(CSC1=NNC(c2ccccn2)S1)Nc1ccccc1` (centres undefined) as the molecule, how does the AC50 read?
Answer: Its AC50 is over 50 µM.

Question: Which AC50 does the source give for `Cc1cccc(N2CCN(C(=O)c3c(-c4ccccc4)noc3C)CC2)c1C` here?
Answer: The AC50 was 2.59 µM.

Question: Which AC50 does the source give for `CCOC(=O)c1sc(Nc2nc(C)cc(C)n2)nc1C` here?
Answer: Its AC50 is 11.5 µM.

Question: `CC(=O)OCCn1c2nc(=O)[nH]c(=O)c-2nc2cc(C)c(C)cc21` was tested. Which AC50 did it give?
Answer: Its AC50 is 15.3 µM.

Question: For `Cc1cc2c(cc1C)C(c1ccccc1OC(C)C)CC(=O)N2` (centres undefined), which AC50 is on record?
Answer: The AC50 was 1.85 µM.
